Where “and” joins values, the source holds several entries; their conditions need not be identical. Equal entries are not always repeated.
Columns and labels:
Assay in all cases: radiometric filter-binding kinase assay, Kinase HotSpot
Conditions in all cases: compound 0.5 µM; ATP 10 µM
TEC (human) = TEC (human) (UniProt P42680)
EPHB1 (human) = EPHB1 (human) (UniProt P54762)
RPS6KA6 KD1 KD2 (human) = RPS6KA6 KD1 KD2 (human) (UniProt Q9UK32)
NTRK3 (human) = NTRK3 (human) (UniProt Q16288)
NEK6 (human) = NEK6 (human) (UniProt Q9HC98)
CDK3 CCNE1 (human) = CDK3 CCNE1 (human) (UniProt Q00526+P24864)
CHUK (human) = CHUK (human) (UniProt O15111)
CHUK (human), sequence (O15111 whole entry, looked up): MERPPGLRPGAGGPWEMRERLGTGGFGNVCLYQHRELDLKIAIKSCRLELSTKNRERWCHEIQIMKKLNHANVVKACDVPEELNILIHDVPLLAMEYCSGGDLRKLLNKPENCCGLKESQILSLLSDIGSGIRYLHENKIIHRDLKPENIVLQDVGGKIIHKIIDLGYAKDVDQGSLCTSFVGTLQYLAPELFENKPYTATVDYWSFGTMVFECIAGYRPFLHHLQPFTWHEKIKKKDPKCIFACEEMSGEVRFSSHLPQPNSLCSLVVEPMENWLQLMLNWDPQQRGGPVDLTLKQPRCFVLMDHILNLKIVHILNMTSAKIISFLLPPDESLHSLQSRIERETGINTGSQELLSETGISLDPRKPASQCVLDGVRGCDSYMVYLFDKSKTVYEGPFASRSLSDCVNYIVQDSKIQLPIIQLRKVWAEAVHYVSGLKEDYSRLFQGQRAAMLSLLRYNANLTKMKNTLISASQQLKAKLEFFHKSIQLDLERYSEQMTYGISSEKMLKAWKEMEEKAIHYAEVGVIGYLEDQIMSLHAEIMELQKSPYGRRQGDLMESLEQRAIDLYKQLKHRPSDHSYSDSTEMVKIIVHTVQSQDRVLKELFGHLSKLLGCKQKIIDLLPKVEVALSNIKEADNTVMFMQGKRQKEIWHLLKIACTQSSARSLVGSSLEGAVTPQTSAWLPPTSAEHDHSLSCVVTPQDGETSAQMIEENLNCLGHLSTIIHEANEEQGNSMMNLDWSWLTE

ULK2 (human) = ULK2 (human) (UniProt Q8IYT8)
PTK2B (human) = PTK2B (human) (UniProt Q14289)
PTK2B (human), sequence (Q14289 whole entry, looked up): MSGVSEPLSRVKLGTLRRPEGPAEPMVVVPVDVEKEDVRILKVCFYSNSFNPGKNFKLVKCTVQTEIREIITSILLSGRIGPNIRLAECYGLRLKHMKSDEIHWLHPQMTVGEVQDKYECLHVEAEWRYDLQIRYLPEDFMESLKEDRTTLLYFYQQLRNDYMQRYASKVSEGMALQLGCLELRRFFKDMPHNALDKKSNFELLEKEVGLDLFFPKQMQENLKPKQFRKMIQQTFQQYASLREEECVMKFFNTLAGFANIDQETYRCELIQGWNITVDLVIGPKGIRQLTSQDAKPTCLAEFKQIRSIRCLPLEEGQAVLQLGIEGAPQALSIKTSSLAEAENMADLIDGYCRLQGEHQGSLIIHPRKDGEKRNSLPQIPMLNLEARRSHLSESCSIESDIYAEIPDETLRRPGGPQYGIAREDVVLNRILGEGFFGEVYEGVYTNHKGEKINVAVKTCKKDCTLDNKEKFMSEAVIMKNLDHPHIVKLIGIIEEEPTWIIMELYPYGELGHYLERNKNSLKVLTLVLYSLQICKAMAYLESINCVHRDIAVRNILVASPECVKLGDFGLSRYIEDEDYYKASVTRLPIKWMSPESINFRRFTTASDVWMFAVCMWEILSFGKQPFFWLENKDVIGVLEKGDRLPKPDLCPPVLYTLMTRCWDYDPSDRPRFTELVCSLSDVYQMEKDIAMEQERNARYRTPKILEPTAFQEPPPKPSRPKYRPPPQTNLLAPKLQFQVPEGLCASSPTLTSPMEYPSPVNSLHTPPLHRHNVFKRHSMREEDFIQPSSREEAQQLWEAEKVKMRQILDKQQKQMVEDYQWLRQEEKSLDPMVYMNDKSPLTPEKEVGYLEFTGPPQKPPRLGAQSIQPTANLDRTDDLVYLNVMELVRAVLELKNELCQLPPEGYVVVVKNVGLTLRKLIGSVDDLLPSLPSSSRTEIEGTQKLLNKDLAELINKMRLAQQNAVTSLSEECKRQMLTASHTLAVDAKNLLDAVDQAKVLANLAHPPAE

TAOK1 (human) = TAOK1 (human) (UniProt Q7L7X3)
PLK3 (human) = PLK3 (human) (UniProt Q9H4B4)
PLK3 (human), sequence (Q9H4B4 whole entry, looked up): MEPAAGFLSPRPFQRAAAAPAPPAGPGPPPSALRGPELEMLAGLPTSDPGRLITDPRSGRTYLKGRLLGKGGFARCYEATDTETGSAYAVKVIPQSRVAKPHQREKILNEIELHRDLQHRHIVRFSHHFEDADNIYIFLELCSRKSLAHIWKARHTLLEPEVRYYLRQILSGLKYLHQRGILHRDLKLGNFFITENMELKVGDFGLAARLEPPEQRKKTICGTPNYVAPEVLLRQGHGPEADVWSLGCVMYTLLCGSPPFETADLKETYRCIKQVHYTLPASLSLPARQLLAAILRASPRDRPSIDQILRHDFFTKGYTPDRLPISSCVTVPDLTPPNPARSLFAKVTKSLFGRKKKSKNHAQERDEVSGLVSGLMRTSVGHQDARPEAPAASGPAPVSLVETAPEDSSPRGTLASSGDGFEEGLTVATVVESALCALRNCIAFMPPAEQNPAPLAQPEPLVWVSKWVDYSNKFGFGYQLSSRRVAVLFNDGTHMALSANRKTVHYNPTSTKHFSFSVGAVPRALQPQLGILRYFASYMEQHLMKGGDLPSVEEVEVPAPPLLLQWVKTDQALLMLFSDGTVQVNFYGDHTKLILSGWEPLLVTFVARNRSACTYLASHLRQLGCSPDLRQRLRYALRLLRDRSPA

MAP3K10 (human) = MAP3K10 (human) (UniProt Q02779)
JAK2 JH1 JH2 (human) = JAK2 JH1 JH2 (human) (UniProt O60674)
PAK3 (human) = PAK3 (human) (UniProt O75914)
MAP4K5 (human) = MAP4K5 (human) (UniProt Q9Y4K4)
CSNK1G1 (human) = CSNK1G1 (human) (UniProt Q9HCP0)
RPS6KA5 KD2 (human) = RPS6KA5 KD2 (human) (UniProt O75582)
ACVR1 (human) = ACVR1 (human) (UniProt Q04771)
PAK4 (human) = PAK4 (human) (UniProt O96013)
CLK1 (human) = CLK1 (human) (UniProt P49759)
AKT3 (human) = AKT3 (human) (UniProt Q9Y243)
MARK3 (human) = MARK3 (human) (UniProt P27448)
VRK1 (human) = VRK1 (human) (UniProt Q99986)
CLK3 (human) = CLK3 (human) (UniProt P49761)
MAPK8 (human) = MAPK8 (human) (UniProt P45983)
MAPK8 (human), sequence (P45983 whole entry, looked up): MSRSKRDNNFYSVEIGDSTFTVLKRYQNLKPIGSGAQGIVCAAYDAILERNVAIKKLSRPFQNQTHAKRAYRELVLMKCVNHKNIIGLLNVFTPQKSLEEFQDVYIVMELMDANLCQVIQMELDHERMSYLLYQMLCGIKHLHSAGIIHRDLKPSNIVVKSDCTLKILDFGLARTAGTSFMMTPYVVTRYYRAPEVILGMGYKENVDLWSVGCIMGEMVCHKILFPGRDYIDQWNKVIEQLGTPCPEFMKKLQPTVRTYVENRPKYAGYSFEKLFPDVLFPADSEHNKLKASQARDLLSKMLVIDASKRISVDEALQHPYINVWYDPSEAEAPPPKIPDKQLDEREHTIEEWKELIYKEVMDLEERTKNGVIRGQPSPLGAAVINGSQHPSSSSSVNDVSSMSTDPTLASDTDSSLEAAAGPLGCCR

[1] = target: JAK1 JH1 catalytic (human) (UniProt P23458)
MLTK (human) = MLTK (human) (UniProt Q9NYL2)
LYN (human) = LYN (human) (UniProt P07948)
LYN (human), sequence (P07948 whole entry, looked up): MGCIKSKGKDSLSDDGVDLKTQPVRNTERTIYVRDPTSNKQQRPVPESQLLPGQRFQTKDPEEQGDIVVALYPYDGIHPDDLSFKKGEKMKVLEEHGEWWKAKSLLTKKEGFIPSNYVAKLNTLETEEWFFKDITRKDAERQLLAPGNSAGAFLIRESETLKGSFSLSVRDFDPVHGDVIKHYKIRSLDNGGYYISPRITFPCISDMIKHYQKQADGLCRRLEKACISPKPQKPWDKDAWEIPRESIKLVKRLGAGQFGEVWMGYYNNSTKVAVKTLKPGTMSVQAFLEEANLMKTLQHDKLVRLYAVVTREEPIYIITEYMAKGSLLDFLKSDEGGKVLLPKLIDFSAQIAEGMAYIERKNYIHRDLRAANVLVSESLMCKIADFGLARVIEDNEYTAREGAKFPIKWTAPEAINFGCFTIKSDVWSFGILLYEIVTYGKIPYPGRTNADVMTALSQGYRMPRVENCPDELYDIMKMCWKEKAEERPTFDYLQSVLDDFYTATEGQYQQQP

MAP3K5 (human) = MAP3K5 (human) (UniProt Q99683)
INSRR (human) = INSRR (human) (UniProt P14616)
CLK2 (human) = CLK2 (human) (UniProt P49760)
TGFBR1 (human) = TGFBR1 (human) (UniProt P36897)
PRKG1 (human) = PRKG1 (human) (UniProt Q13976)
PRKG1 (human), sequence (Q13976 whole entry, looked up): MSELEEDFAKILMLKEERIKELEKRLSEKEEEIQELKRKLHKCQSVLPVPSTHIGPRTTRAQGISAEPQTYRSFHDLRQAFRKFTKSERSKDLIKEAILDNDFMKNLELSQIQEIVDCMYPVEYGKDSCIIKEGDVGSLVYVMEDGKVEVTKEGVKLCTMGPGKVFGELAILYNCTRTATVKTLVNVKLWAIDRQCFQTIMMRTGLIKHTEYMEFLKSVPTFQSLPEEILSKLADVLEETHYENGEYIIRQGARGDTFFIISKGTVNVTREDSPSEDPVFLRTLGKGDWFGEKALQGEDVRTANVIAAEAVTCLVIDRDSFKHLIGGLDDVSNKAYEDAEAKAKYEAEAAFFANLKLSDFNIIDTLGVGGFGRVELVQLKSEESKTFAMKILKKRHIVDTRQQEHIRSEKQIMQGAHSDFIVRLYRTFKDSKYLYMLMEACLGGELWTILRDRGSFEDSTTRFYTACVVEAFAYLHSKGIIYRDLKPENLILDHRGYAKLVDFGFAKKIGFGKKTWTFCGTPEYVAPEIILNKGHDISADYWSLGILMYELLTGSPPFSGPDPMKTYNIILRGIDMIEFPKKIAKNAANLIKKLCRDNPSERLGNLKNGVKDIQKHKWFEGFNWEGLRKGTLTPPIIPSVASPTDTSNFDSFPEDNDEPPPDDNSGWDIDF

DYRK2 (human) = DYRK2 (human) (UniProt Q92630)
LIMK1 (human) = LIMK1 (human) (UniProt P53667)
RET (human) = RET (human) (UniProt P07949)
ERBB2 (human) = ERBB2 (human) (UniProt P04626)
NEK2 (human) = NEK2 (human) (UniProt P51955)
EPHB4 (human) = EPHB4 (human) (UniProt P54760)
EPHB4 (human), sequence (P54760 whole entry, looked up): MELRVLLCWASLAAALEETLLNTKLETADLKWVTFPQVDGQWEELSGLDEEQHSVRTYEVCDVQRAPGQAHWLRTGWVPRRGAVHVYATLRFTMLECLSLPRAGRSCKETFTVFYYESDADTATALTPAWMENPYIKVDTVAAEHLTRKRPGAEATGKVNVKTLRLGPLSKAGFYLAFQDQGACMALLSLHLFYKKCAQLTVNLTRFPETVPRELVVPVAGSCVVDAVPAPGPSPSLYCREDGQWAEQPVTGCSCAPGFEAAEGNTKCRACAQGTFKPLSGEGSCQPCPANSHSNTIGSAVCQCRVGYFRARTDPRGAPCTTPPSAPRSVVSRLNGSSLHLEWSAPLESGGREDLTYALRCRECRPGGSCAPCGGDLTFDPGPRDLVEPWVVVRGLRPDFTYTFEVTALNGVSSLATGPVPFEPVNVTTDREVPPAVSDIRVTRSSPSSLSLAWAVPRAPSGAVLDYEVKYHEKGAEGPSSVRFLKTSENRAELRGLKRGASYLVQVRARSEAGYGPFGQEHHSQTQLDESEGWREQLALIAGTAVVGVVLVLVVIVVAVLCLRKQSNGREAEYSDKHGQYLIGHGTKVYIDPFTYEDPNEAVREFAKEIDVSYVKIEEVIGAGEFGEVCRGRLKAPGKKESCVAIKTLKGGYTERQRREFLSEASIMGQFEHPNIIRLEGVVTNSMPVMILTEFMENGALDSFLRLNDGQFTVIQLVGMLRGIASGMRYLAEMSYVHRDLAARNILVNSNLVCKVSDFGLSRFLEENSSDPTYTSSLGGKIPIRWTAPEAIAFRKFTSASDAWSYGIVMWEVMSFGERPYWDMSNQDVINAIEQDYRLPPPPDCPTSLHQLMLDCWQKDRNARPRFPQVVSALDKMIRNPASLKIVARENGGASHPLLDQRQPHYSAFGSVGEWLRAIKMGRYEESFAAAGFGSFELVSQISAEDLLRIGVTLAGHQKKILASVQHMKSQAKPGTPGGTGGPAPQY

HCK (human) = HCK (human) (UniProt P08631)
ULK1 (human) = ULK1 (human) (UniProt O75385)
PHKG1 (human) = PHKG1 (human) (UniProt Q16816)

## CC(C)[C@H](CO)Nc1nc(Nc2cccc(Cl)c2)c2ncn(C(C)C)c2n1
TEC (human)
  residual activity: 127%
EPHB1 (human)
  residual activity: 83.5%
RPS6KA6 KD1 KD2 (human)
  residual activity: 96.8%
NTRK3 (human)
  residual activity: 15%
NEK6 (human)
  residual activity: 91.3%
CDK3 CCNE1 (human)
  residual activity: 34.5%
CHUK (human)
  residual activity: 106%
ULK2 (human)
  residual activity: 97.7%
PTK2B (human)
  residual activity: 66.5%
TAOK1 (human)
  residual activity: 95.4%
PLK3 (human)
  residual activity: 86.4%
MAP3K10 (human)
  residual activity: 98%
JAK2 JH1 JH2 (human)
  residual activity: 97.7%
PAK3 (human)
  residual activity: 94.2%
MAP4K5 (human)
  residual activity: 97.5%
CSNK1G1 (human)
  residual activity: 28%
RPS6KA5 KD2 (human)
  residual activity: 100%
ACVR1 (human)
  residual activity: 92.6%
PAK4 (human)
  residual activity: 99.5%
CLK1 (human)
  residual activity: 67.5%
AKT3 (human)
  residual activity: 102%
MARK3 (human)
  residual activity: 96.6%
VRK1 (human)
  residual activity: 99.5%
CLK3 (human)
  residual activity: 89.7%
MAPK8 (human)
  residual activity: 99%
[1]
  residual activity: 108%
MLTK (human)
  residual activity: 108%
LYN (human)
  residual activity: 60.2% and 82.5%
MAP3K5 (human)
  residual activity: 108%
INSRR (human)
  residual activity: 88.2%
CLK2 (human)
  residual activity: 21.9%
TGFBR1 (human)
  residual activity: 103%
PRKG1 (human)
  residual activity: 71.4% and 90.2%
DYRK2 (human)
  residual activity: 98.4%
LIMK1 (human)
  residual activity: 86.3%
RET (human)
  residual activity: 81.4%
ERBB2 (human)
  residual activity: 97.1%
NEK2 (human)
  residual activity: 102%
EPHB4 (human)
  residual activity: 71.7%
HCK (human)
  residual activity: 55.6%
ULK1 (human)
  residual activity: 67.5%
PHKG1 (human)
  residual activity: 89.9%

## CCCNC(=O)Nc1ccc(Oc2ncnc3cc(OC)c(OC)cc23)cc1Cl
TEC (human)
  residual activity: 119%
EPHB1 (human)
  residual activity: 95.5%
RPS6KA6 KD1 KD2 (human)
  residual activity: 102%
NTRK3 (human)
  residual activity: 89%
NEK6 (human)
  residual activity: 105%
CDK3 CCNE1 (human)
  residual activity: 94%
CHUK (human)
  residual activity: 84.9%
ULK2 (human)
  residual activity: 89.2%
PTK2B (human)
  residual activity: 88%
TAOK1 (human)
  residual activity: 92.2%
PLK3 (human)
  residual activity: 95%
MAP3K10 (human)
  residual activity: 103%
JAK2 JH1 JH2 (human)
  residual activity: 96.9%
PAK3 (human)
  residual activity: 94.7%
MAP4K5 (human)
  residual activity: 54.6%
CSNK1G1 (human)
  residual activity: 97.1%
RPS6KA5 KD2 (human)
  residual activity: 95.6%
ACVR1 (human)
  residual activity: 101%
PAK4 (human)
  residual activity: 95.7%
CLK1 (human)
  residual activity: 96.2%
AKT3 (human)
  residual activity: 88.9%
MARK3 (human)
  residual activity: 95.3%
VRK1 (human)
  residual activity: 104%
CLK3 (human)
  residual activity: 98.8%
MAPK8 (human)
  residual activity: 107%
[1]
  residual activity: 99.2%
MLTK (human)
  residual activity: 103%
LYN (human)
  residual activity: 75.5% and 94.1%
MAP3K5 (human)
  residual activity: 102%
INSRR (human)
  residual activity: 98.4%
CLK2 (human)
  residual activity: 89.5%
TGFBR1 (human)
  residual activity: 102%
PRKG1 (human)
  residual activity: 76.8% and 95.4%
DYRK2 (human)
  residual activity: 108%
LIMK1 (human)
  residual activity: 81.6%
RET (human)
  residual activity: 8.42%
ERBB2 (human)
  residual activity: 116%
NEK2 (human)
  residual activity: 92.3%
EPHB4 (human)
  residual activity: 89.4%
HCK (human)
  residual activity: 88.7%
ULK1 (human)
  residual activity: 83.2%
PHKG1 (human)
  residual activity: 91.3%

Reference: the kinase profiling compilation of Christmann-Franck et al. (2016)
